The experiment concerns iPSC-derived dopaminergic neurons from PD patients. In words: Antimycin A stress-induced neurodegeneration of iPSC-derived dopaminergic neurons (TH, PI staining). The experiment is classed as cell-based, human. The following applies: 5 μM for 30 hrs, 10 μM Antimycin A for 6 hrs, neurons from both PD patients. On the procedure:
FIG. 3A-FIG. 3D. Miro1 Reducer Rescues Parkinson's Neurodegeneration. (FIG. 3A) Fibroblasts were treated, lysed, and blotted as indicated. Band intensities are normalized to those of ATP5β from the same blots and compared to “Healthy-2, no treatment”. n=4. (FIG. 3B-FIG. 3C) iPSC-derived neurons were treated as indicated and immunostained with anti-TH (FIG. 3B) or stained with PI and Dapi (FIG. 3C). Both Antimycin A and Miro1 Reducer were dissolved in ethanol. Neurons were pretreated with Miro1 Reducer 24 hrs before the application of Antimycin A for another 6 hrs. The same volume of ethanol was applied at the same time in negative controls. (FIG. 3B) The density of TH-positive neurons is calculated in each condition under 20×, from 10 fields each experiment, 3-4 experiments. […] (FIG. 3C) The percentage of PI-positive cells out of total cells (Dapi-positive) is calculated. n=20 fields each experiment, 4 experiments. For (FIG. 3B-FIG. 3C), comparisons with “Wild-type-I, no treatment” except otherwise indicated. […] Graphs of Mean±S.E.M show the percent of time each mitochondrion is in motion (red and blue, compared to “Wild-type-I, before treatment”), and the mitochondrial intensity normalized to that of the same axonal region at “0 min” and expressed as a fraction of the mean of “Wild-type-I, 0 min”. n=33-77 mitochondria from 5-8 axons from 5-8 separate transfections. […]

This note sets out measurements from US12544375B2, “Small molecule therapeutic for parkinson's disease paired with a biomarker of therapeutic activity” (The Board of Trustees of the Leland Stanford Junior …, priority 2019, dated 2026).

For the compound `O=C(Nc1ccc(Nc2cc(-n3ccnc3)ncn2)cc1)Nc1cccc(F)c1` [Miro1 Reducer], the “stress-induced neurodegeneration of dopaminergic neurons” value is “completely rescued”.
